This passage reports IC50 results from US9115101B2 (Genentech, Inc., priority 2012, dated 2015).

Read-outs that look alike come from different tables or passages of the source.

For orientation: IC50 means the midpoint of a concentration-inhibition curve.

This assay concerns the target T1, RORc ligand binding domain (Homo sapiens, UniProt P51449).
T1 construct: host or cells: E. coli
T1 sequence (P51449 269-508 limits assumed): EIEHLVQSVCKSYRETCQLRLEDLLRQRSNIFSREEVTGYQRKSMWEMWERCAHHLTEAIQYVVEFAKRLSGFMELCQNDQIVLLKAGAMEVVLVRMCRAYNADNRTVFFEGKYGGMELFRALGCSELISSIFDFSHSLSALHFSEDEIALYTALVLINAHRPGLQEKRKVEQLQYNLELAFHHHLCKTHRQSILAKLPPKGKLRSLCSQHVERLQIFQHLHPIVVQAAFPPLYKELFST
As to the kind of experiment: In Vitro RORc Ligand Binding Assay (25-[3H]hydroxycholesterol radioligand filtration). The settings on record: read-out: RORc IC50.

[1] abbreviates: In Vitro RORc Ligand Binding Assay, Table 4.

For `C[C@H]1CCC(c2ccccc2)S(=O)(=O)N1Cc1ccc(C(=O)N2CC(c3nncn3C)C2)cc1` (stereo partly drawn) [Example 295, [4-((3S)-Methyl-1,1-dioxo-6-phenyl-[1,2]thiazinan-2-ylmethyl)-phenyl]-[3-(4-methyl-4H-[1,2,4]triazol-3-yl)-azetidin-1-yl]-methanone], under setting [1], the IC50 worked out at 5350 nM.
The same measure, in the same setting: the figure for `CC(=O)N1CCN(c2ccc(CN3[C@H](C)CCC(c4ccccc4)S3(=O)=O)cc2)CC1` (single isomer, unassigned) [Example 47] is 299 nM.
Regarding `CCOC(=O)N1CCC(C(=O)Nc2ccc(CN3[C@@H](C)CCC(c4ccccc4)S3(=O)=O)c(F)c2)CC1` (stereo partly drawn) [Example 456, 4-[3-Fluoro-4-((3S)-methyl-1,1-dioxo-6-phenyl-[1,2]thiazinan-2-ylmethyl)-phenylcarbamoyl]-piperidine-1-carboxylic acid ethyl ester], the half-inhibitory concentration (IC50) came out at 148 nM.
For `C[C@H]1CCC(c2ccccc2)S(=O)(=O)N1Cc1ccc(C(=O)NCC2COC2)cc1` (stereo partly drawn) [Example 269, 4-((3S)-Methyl-1,1-dioxo-6-phenyl-[1,2]thiazinan-2-ylmethyl)-N-oxetan-3-ylmethyl-benzamide], the IC50 under setting [1] amounted to 1670 nM.
As to `CC(=O)N1CCN(c2ccc(CN3[C@@H](C)CCC(c4ccccc4C#N)S3(=O)=O)c(F)c2)CC1` (single isomer, unassigned) [Example 207], the IC50 under setting [1] worked out at 1810 nM.
On to `C[C@H]1CCC(c2ccccc2)S(=O)(=O)N1Cc1ccc(N2CCN3C(=O)OCC3C2)cc1F` (single isomer, unassigned) [Example 418], for which the IC50 came out at 129 nM.
On to `CC(=O)N1CCN(c2ccc(CN3[C@@H](C)CCC(c4ccccc4)S3(=O)=O)c(F)c2)C[C@@H]1C(=O)O` (stereo partly drawn) [Example 261, 1-Acetyl-4-[3-fluoro-4-((3S)-methyl-1,1-dioxo-6-phenyl-[1,2]thiazinan-2-ylmethyl)-phenyl]-piperazine-2-carboxylic acid], for which the IC50 under setting [1] worked out at 379 nM.
As for `CS(=O)(=O)N1CCC(Oc2ccc(CN3CCCC(c4ccccc4)S3(=O)=O)c(F)c2)CC1` (single isomer, unassigned) [Example 4], under setting [1], the 50% inhibitory concentration (IC50) was 37 nM.
As to `C[C@H]1CCC(c2ccccc2)S(=O)(=O)N1Cc1ccc(C(=O)NC2CCS(=O)(=O)CC2)cc1` (stereo partly drawn) [Example 386, N-(1,1-Dioxo-hexahydro-1-thiopyran-4-yl)-4-((3S)-methyl-1,1-dioxo-6-phenyl-[1,2]thiazinan-2-ylmethyl)-benzamide], under setting [1], the concentration for half-maximal inhibition (IC50) was 1490 nM.
For `CC(=O)N1CCN(c2ccc(CN3[C@H](C)COCC(c4ccccc4)S3(=O)=O)c(F)c2)CC1` (single isomer, unassigned) [Example 27], the IC50 under setting [1] stood at 188 nM.
`C=C1CCC(c2ccccc2)S(=O)(=O)N(Cc2ccc(N3CCN(C(C)=O)CC3)cc2F)C1` (stereo not shown) [Example 348, 1-{4-[3-Fluoro-4-(4-methylene-1,1-dioxo-7-phenyl-[1,2]thiazepan-2-ylmethyl)-phenyl]-piperazin-1-yl}-ethanone]: under setting [1], the half-inhibitory concentration (IC50) came to 49 nM.
Take `CONC(=O)[C@@H]1CN(c2ccc(CN3[C@@H](C)CCC(c4ccccc4)S3(=O)=O)c(F)c2)CCN1C(C)=O` (stereo partly drawn) [Example 407, (S)-1-Acetyl-4-[3-fluoro-4-((3S)-methyl-1,1-dioxo-6-phenyl-[1,2]thiazinan-2-ylmethyl)-phenyl]-piperazine-2-carboxylic acid methoxy-amide]: the IC50 was 148 nM.
For the compound `COc1cccc(C2CC[C@H](C)N(Cc3ccc(N4CCN(C(C)=O)CC4)cc3F)S2(=O)=O)c1` (single isomer, unassigned) [Example 190], the IC50 under setting [1] was found to be 117 nM.
For `CC(=O)N1CCN(c2ccc(CN3CCOCC(c4ccccc4)S3(=O)=O)c(F)c2)CC1` (single isomer, unassigned) [Example 22, 1-{4-[4-(4,4-Dioxo-3-phenyl-[1,4,5]oxathiazepan-5-ylmethyl)-3-fluoro-phenyl]-piperazin-1-yl}-ethanone], the half-maximal inhibitory concentration (IC50) under setting [1] amounted to 751 nM.
Take `C[C@H]1CCC(c2ccccc2)S(=O)(=O)N1Cc1ccc(N2CCC(n3cccn3)CC2)cc1F` (stereo partly drawn) [Example 209, (3S)-2-[2-Fluoro-4-(4-pyrazol-1-yl-piperidin-1-yl)-benzyl]-3-methyl-6-phenyl-[1,2]thiazinane 1,1-dioxide]: the IC50 under setting [1] was determined as 121 nM.
For the compound `CC(=O)N1CCN(c2ccc(CN3[C@@H](C)CCC(c4ccccc4)S3(=O)=O)c(F)c2)C[C@@H]1C(=O)N(C)C` (stereo partly drawn) [Example 384, (R)-1-Acetyl-4-[3-fluoro-4-((3S)-methyl-1,1-dioxo-6-phenyl-[1,2]thiazinan-2-ylmethyl)-phenyl]-piperazine-2-carboxylic acid dimethylamide], the half-maximal inhibitory concentration (IC50) under setting [1] was 1720 nM.
The same measure, in the same setting: the figure for `C[C@H]1CCC(c2ccccc2)S(=O)(=O)N1Cc1ccc(N2CCC(c3n[nH]c(=O)o3)CC2)cc1F` (single isomer, unassigned) [Example 144] is 21 nM; for `CNC(=O)[C@H]1CN(c2ccc(CN3[C@@H](C)CCC(c4ccccc4)S3(=O)=O)c(F)c2)CCN1C(C)=O` (stereo partly drawn) [Example 383, (R)-1-Acetyl-4-[3-fluoro-4-((3S)-methyl-1,1-dioxo-6-phenyl-[1,2]thiazinan-2-ylmethyl)-phenyl]-piperazine-2-carboxylic acid methylamide] it is 705 nM; for `CC(=O)N1CCN(c2ccc(CN3C4CCCC4CC(c4ccccc4)S3(=O)=O)c(F)c2)CC1` (single isomer, unassigned) [Example 252, 1-(4-(4-((2,2-dioxido-3-phenylhexahydro-cyclopenta[c][1,2]thiazin-1(3H)-yl)methyl)-3-fluorophenyl)piper-azin-1-yl)ethanone] it is 68 nM.
On the same count and under the same terms, the result for `CC(=O)N1CCN(c2ccc(CN3[C@@H](C)CCC(c4ccc(F)cc4)S3(=O)=O)c(F)c2)CC1` (single isomer, unassigned) [Example 121] reads 14 nM.
On to `CC(=O)N1CCN(c2ccc(CN3[C@@H](C)CCC(c4ccccc4)S3(=O)=O)c(F)c2)C[C@@H]1C` (stereo partly drawn) [Example 238, 1-{4-[3-Fluoro-4-((3S)-methyl-1,1-dioxo-6-phenyl-[1,2]thiazinan-2-ylmethyl)-phenyl]-2-methyl-piperazin-1-yl}-ethanone], for which the half-inhibitory concentration (IC50) under setting [1] stood at 8 nM.
For `C[C@H]1CCC(c2ccccc2)S(=O)(=O)N1Cc1ccc(C(=O)N2CC3(CCOC3)C2)cc1` (stereo partly drawn) [Example 372, [4-((3S)-Methyl-1,1-dioxo-6-phenyl-[1,2]thiazinan-2-ylmethyl)-phenyl]-(6-oxa-2-aza-spiro[3.4]oct-2-yl)-methanone], under setting [1], the IC50 amounted to 3040 nM.
Take `C[C@H]1CCC(c2ccccc2)S(=O)(=O)N1Cc1ccc(N2CCC3(COC3)C2)cc1F` (single isomer, unassigned) [Example 107]: under setting [1], the concentration for half-maximal inhibition (IC50) stood at 20 nM.
Take `CC(=O)N1CCN(c2ccc(CN3[C@@H](C)CCC(c4cccc(F)c4)S3(=O)=O)c(F)c2)CC1` (single isomer, unassigned) [Example 127]: under setting [1], the IC50 amounted to 58 nM.
Turning to `C[C@H]1CCC(c2ccccc2)S(=O)(=O)N1Cc1ccc(NC(=O)C2CN(S(C)(=O)=O)C2)cc1F` (stereo partly drawn) [Example 458, 1-Methanesulfonyl-azetidine-3-carboxylic acid [3-fluoro-4-((3S)-methyl-1,1-dioxo-6-phenyl-[1,2]thiazinan-2-ylmethyl)-phenyl]-amide], the half-maximal inhibitory concentration (IC50) amounted to 98 nM.
Turning to `CC(=O)N1CCN(c2ccc(CN3[C@@H](C)CCC(c4ccccc4)S3(=O)=O)c(F)c2)C[C@H]1C(=O)O` (stereo partly drawn) [Example 377, (S)-1-Acetyl-4-[3-fluoro-4-((3S)-methyl-1,1-dioxo-6-phenyl-[1,2]thiazinan-2-ylmethyl)-phenyl]-piperazine-2-carboxylic acid], the IC50 under setting [1] worked out at 1360 nM.
Turning to `CC(=O)N1CCN(c2ccc(CN3[C@@H](C)CCC(c4cccc(C)c4)S3(=O)=O)c(F)c2)CC1` (single isomer, unassigned) [Example 192], the IC50 under setting [1] was 6 nM.
As for `O=C(CO)N1CCN(c2ccc(CN3CCCCC(c4ccccc4)S3(=O)=O)c(F)c2)CC1` (single isomer, unassigned) [Example 313, 1-{4-[4-(1,1-Dioxo-7-phenyl-[1,2]thiazepan-2-ylmethyl)-3-fluoro-phenyl]-piperazin-1-yl}-2-hydroxy-ethanone], under setting [1], the half-inhibitory concentration (IC50) was determined as 592 nM.
Still for that read-out and setting: the figure for `C[C@H]1CCC(c2ccccc2)S(=O)(=O)N1Cc1ccc(NC2CCN(S(C)(=O)=O)CC2)cc1` (stereo partly drawn) [Example 216, (1-Methanesulfonyl-piperidin-4-yl)-[4-((3S)-3-methyl-1,1-dioxo-6-phenyl-[1,2]thiazinan-2-ylmethyl)-phenyl]-amine] is 9 nM.
As to `CCOC(=O)N1CCC(NC(=O)c2ccc(CN3[C@@H](C)CCC(c4ccccc4)S3(=O)=O)cc2)CC1` (stereo partly drawn) [Example 276, 4-[4-((3S)-Methyl-1,1-dioxo-6-phenyl-[1,2]thiazinan-2-ylmethyl)-benzoylamino]-piperidine-1-carboxylic acid ethyl ester], the concentration for half-maximal inhibition (IC50) under setting [1] came to 4440 nM.
As for `C[C@H]1CCC(c2ccccc2)S(=O)(=O)N1Cc1ccc(C(=O)N2CCC3(CCOC3)C2)cc1` (stereo partly drawn) [Example 358, [4-((3S)-Methyl-1,1-dioxo-6-phenyl-[1,2]thiazinan-2-ylmethyl)-phenyl]-(2-oxa-7-aza-spiro[4.4]non-7-yl)-methanone], under setting [1], the IC50 is 1220 nM.
Turning to `C[C@H]1CCC(c2ccccc2)S(=O)(=O)N1Cc1ccc(C(=O)N(C)CC2CCCO2)cc1` (stereo partly drawn) [Example 283, N-Methyl-4-((3S)-methyl-1,1-dioxo-6-phenyl-[1,2]thiazinan-2-ylmethyl)-N-(tetrahydro-furan-2-ylmethyl)-benzamide], the half-inhibitory concentration (IC50) under setting [1] worked out at 1310 nM.
Take `C[C@H](O)C(=O)N1CCN(c2ccc(CN3[C@@H](C)CCC(c4ccccc4)S3(=O)=O)c(F)c2)CC1` (single isomer, unassigned) [Example 79]: the concentration for half-maximal inhibition (IC50) under setting [1] worked out at 82 nM.
With `CC(=O)N1CCN(c2ccc(CN3[C@@H](C)CCC(c4ccccc4)S3(=O)=O)cc2C#N)CC1` (single isomer, unassigned) [Example 113], the half-inhibitory concentration (IC50) under setting [1] turned out to be 2750 nM.
